Test results as given in paper PMC12748989 (Nature Communications, 2025).

How the values were obtained:
PBMC = conditions: 12.5 µM

SMILES	Average (percentage cell inhibition), Mastoparan PBMC (PBMC)	Average (percentage cell inhibition), Dmastoparan MDA-MB231 12.5uM (MDA-MB-231 cells)
CC[C@H](C)[C@H](N)C(=O)N[C@@H](CC(N)=O)C(=O)N[C@@H](CCCNC(=N)N)C(=O)N[C@@H](CCCCN)C(=O)N[C@@H](C)C(=O)N[C@@H](CC(C)C)C(=O)N[C@@H](C)C(=O)N[C@@H](C)C(=O)N[C@@H](CC(C)C)C(=O)N[C@@H](C)C(=O)N[C@@H](CCCCN)C(=O)N[C@@H](CCCCN)C(=O)N[C@H](C(=O)N[C@@H](CC(C)C)C(N)=O)[C@@H](C)CC [R3]	-2.846%	24.609%
CC[C@H](C)[C@H](N)C(=O)N[C@@H](CC(N)=O)C(=O)N[C@@H](CC(C)C)C(=O)N[C@@H](CCCCN)C(=O)N[C@@H](C)C(=O)N[C@@H](CC(C)C)C(=O)N[C@@H](C)C(=O)N[C@@H](Cc1c[nH]c2ccccc12)C(=O)N[C@@H](CC(C)C)C(=O)N[C@@H](C)C(=O)N[C@@H](CCCCN)C(=O)N[C@@H](CCCCN)C(=O)N[C@H](C(=O)N[C@@H](CC(C)C)C(N)=O)[C@@H](C)CC [W8]	51.7838%	62.4515%
CC[C@H](C)[C@H](N)C(=O)N[C@@H](CC(N)=O)C(=O)N[C@@H](CC(C)C)C(=O)N[C@@H](CCCCN)C(=O)N[C@@H](C)C(=O)N[C@@H](CC(C)C)C(=O)N[C@@H](C)C(=O)N[C@@H](C)C(=O)N[C@@H](CC(C)C)C(=O)N[C@@H](C)C(=O)N[C@@H](CCCCN)C(=O)N[C@@H](C)C(=O)N[C@H](C(=O)N[C@@H](CC(C)C)C(N)=O)[C@@H](C)CC [A12]	17.0691%	42.9356%
CC[C@H](C)[C@H](N)C(=O)N[C@@H](CC(N)=O)C(=O)N[C@@H](CC(C)C)C(=O)N[C@@H](CCCCN)C(=O)N[C@@H](C)C(=O)N[C@@H](CC(C)C)C(=O)N[C@H](C(=O)N[C@@H](C)C(=O)N[C@@H](CC(C)C)C(=O)N[C@@H](C)C(=O)N[C@@H](CCCCN)C(=O)N[C@@H](CCCCN)C(=O)N[C@H](C(=O)N[C@@H](CC(C)C)C(N)=O)[C@@H](C)CC)[C@@H](C)CC [I7]	39.466%	72.6071%
CC[C@H](C)[C@H](N)C(=O)N[C@@H](CC(N)=O)C(=O)N[C@@H](CC(C)C)C(=O)N[C@@H](CCCCN)C(=O)N[C@@H](C)C(=O)N[C@@H](CC(C)C)C(=O)N[C@@H](C)C(=O)N[C@@H](C)C(=O)N[C@@H](CC(C)C)C(=O)N[C@@H](C)C(=O)N[C@H](C(=O)N[C@@H](CCCCN)C(=O)N[C@H](C(=O)N[C@@H](CC(C)C)C(N)=O)[C@@H](C)CC)[C@@H](C)CC [I11]	5.295%	36.5354%
CC[C@H](C)[C@H](N)C(=O)N[C@@H](CC(N)=O)C(=O)N[C@@H](CC(C)C)C(=O)N[C@@H](CCCCN)C(=O)N[C@@H](C)C(=O)N[C@@H](CC(C)C)C(=O)N[C@@H](C)C(=O)N[C@@H](C)C(=O)N[C@@H](CC(C)C)C(=O)N[C@@H](C)C(=O)N[C@@H](CCC(=O)O)C(=O)N[C@@H](CCCCN)C(=O)N[C@H](C(=O)N[C@@H](CC(C)C)C(N)=O)[C@@H](C)CC [E11]	5.959%	19.6815%
CC[C@H](C)[C@H](N)C(=O)N[C@@H](CC(N)=O)C(=O)N[C@@H](C)C(=O)N[C@@H](CCCCN)C(=O)N[C@@H](C)C(=O)N[C@@H](CC(C)C)C(=O)N[C@@H](C)C(=O)N[C@@H](C)C(=O)N[C@@H](CC(C)C)C(=O)N[C@@H](C)C(=O)N[C@@H](CCCCN)C(=O)N[C@@H](CCCCN)C(=O)N[C@H](C(=O)N[C@@H](CC(C)C)C(N)=O)[C@@H](C)CC [A3]	-7.622%	17.9778%
